In paper PMC9230136 (Pharmaceutics, 2022):
“Also recorded” adds a separate entry of the source.

How the values were obtained:
[1] = test system: HeLa cells in zebrafish Tg(fli1: EGFP) embryos; assay: Zebrafish xenograft model with HeLa cells; format: in vivo, Danio rerio; conditions: 145 or 290 nM, 24 h, 34 °C; p 0.04 and 0.01
Method: For the transplantation, zebrafish Tg(fli1: EGFP) embryos expressing enhanced green fluorescent protein (EGFP) specifically in vascular endothelial cells, were kept at 28 °C and manually dechorionated. Before microinjections into zebrafish embryos, HeLa cancer cells were stained with VybrantTM DiI Cell-Labeling Solution (Invitrogen, ThermoFisher, Carlsbad, CA, USA) according to the manufacturer’s protocol, in order to visualize and track them inside the larvae. Stained cells (1.0 × 10^6 cells) were suspended in 20 μL of PBS 1X obtaining a final concentration of 50 cells/nL; next, the cellular suspension was loaded into borosilicate glass capillary needles (OD/ID: 1.00/0.75 mm, World Precision Instruments, Sarasota, FL, USA). […]
Initially (time 0 h pre-treatment) and after one day post-treatment, the tumors were photographed with a Zeiss AxioObserver microscope for live-cell imaging. HeLa cell fluorescence was recorded to investigate reduction, death and migration of tumor cells. Using Fiji ImageJ software, the reduction in cancer cell fluorescence, related to the effectiveness of the anticancer drug treatments, was calculated and plotted. The fluorescence of at least 20 identically treated embryos was compared to vehicle control set to 100%.

PBL stimulated with PHA = assay: Cytotoxicity in human PBLs stimulated with PHA; format: cell-based; conditions: 72 h, read-out: IC50 PBLPHA
From the text: Human PBLs were obtained from healthy donors by separation on a Lymphoprep^TM (Serumwerk Bernburg AG) gradient and were used for the evaluation of the cytotoxic potential of compounds under study in normal human cells. Buffy coats were obtained from the Blood Transfusion Service, Azienda Ospedaliera of Padova and provided at this institution for research purposes without identifier. The samples were not obtained specifically for this study, and for this reason ethical approval was not required. Informed consent was obtained from blood donors according to Italian law no. 219 (21 October 2005). Data were treated by the Blood Transfusion Service according to Italian law on personal data management “Codice in materia di protezione dati personali” (Testo Unico D.L. Giugno 30, 2003 196).
After extensive washing with saline solution (BioConcept, Hank’s Buffered Saline Solution), quiescent PBLs were resuspended (1.0 × 10^6 cells/mL) in RPMI-1640 medium supplemented with 10% fetal bovine serum. Cytotoxicity evaluations were conducted also in cultures of proliferating PBLs, stimulated with […] PHA (Irvine Scientific). Both resting and proliferating lymphocytes were seeded in 96-well plates and maintained overnight at 37 °C in a humidified 5% CO2 incubator. Serial (5-fold) dilutions of the tested compounds were added, and viability was determined 72 h later by the resazurin viability assay as described above.

Zebrafish embryos = assay: Acute toxicity assessment in zebrafish embryos; format: in vivo, Danio rerio; conditions: for Results (toxicity evaluation) / % Alterations 24 h / % Lethality 24 h / % Alterations 48 h / % Lethality 48 h: 72 hpf embryos
Method: Zebrafish embryos at 72 h post fertilization (hpf) were selected for the acute toxicity assay since, at that time, morphogenesis and function of the primary organ systems are complete. Embryos at 72 hpf were assayed in a 12-well plate, 20 larvae/well for each experimental condition.
The zebrafish embryos were treated as described in the Biological Results and Discussion section using drug concentrations selected on the basis of in vitro experimental data. The drugs were added directly to the fish water from 10 mM stock solutions in DMSO of tested compounds. […] CA-4P was employed as the reference compound.
The experiment was carried out at a constant temperature (28.5 °C) in the dark, and at 24 and 48 h time points, zebrafish were subjected to visual observation and image acquisition under a stereomicroscope (Nikon SMZ745T; Nikon, Japan). The number of dead zebrafish embryos for each condition was recorded, and morphological defects were evaluated. The survival rate (%) after treatment was calculated.

HeLa cells = assay: Immunofluorescence labeling of microtubules; format: cell-based, human; conditions: 10 nM, 24 h
Method: HeLa cells were seeded at 15,000 cells/well in a NuncTM Lab-Tek 8-well Chamber SlideTM System (Thermo Fisher Scientific) and incubated under cell culture conditions for 24 h. The cells were treated with various concentrations of compounds or solvent (DMSO as control) and incubated for another 24 h.
After the pharmacological treatment, cells were rinsed with PBS and fixed with 200 μL of 4% paraformaldehyde in PBS for 15 min at room temperature. Cells were then washed twice with PBS 1X before proceeding with permeabilization and protein saturation using a blocking buffer containing 3% bovine serum albumin and 0.1% Triton X-100. Cells were maintained in the blocking buffer for 30 min at room temperature before performing immunostaining of microtubules. Cells were incubated with a murine monoclonal anti-β tubulin antibody (Sigma-Aldrich, Milano, Italy) overnight at 4 °C.
After three washes with PBS 1X, cells were incubated for 1 h at room temperature in the dark with a secondary antibody conjugated to Alexa FluorTM 488 (Invitrogen, Thermo Fisher Scientific, Waltham, MA, USA)). […]
Alterations in the microtubule cytoskeleton were documented by fluorescence microscopy using a Zeiss LSM 800 with Airyscan Confocal Spectral microscope (100× magnification) (New York, NY, USA). […]

Structure (SMILES): Cc1cc(Nc2ccc(F)cc2)n2nc(NCCCc3ccccc3)nc2n1 [Compound 8q]
- HeLa tumor cells / fluorescence in zebrafish xenograft [1]: significantly inhibited HeLa cell growth in zebrafish embryos; also recorded: number of circulating tumor cells was significantly reduced; also recorded: fluorescence intensity decreased in a dose-dependent manner; also recorded: reduced HeLa cell growth in xenografts implanted in zebrafish embryos
- IC50 (PBL stimulated with PHA): > 10 µM
- death, morphologic changes, developmental abnormalities (Zebrafish embryos; 100 nM and 1 μM, 24 and 48 h): no death and no morphologic changes or developmental abnormalities; also recorded: No abnormal phenotypes or developmental defects were seen
- Results (toxicity evaluation) (Zebrafish embryos; 100 nM): Not toxic
- % Alterations 24 h (Zebrafish embryos; 100 nM): 0%
- % Lethality 24 h (Zebrafish embryos; 100 nM): 0%
- % Alterations 48 h (Zebrafish embryos; 100 nM): 0%
- % Lethality 48 h (Zebrafish embryos; 100 nM): 0%
- Results (toxicity evaluation) (Zebrafish embryos; 1 μM): Not toxic
- % Alterations 24 h (Zebrafish embryos; 1 μM): 0%
- % Lethality 24 h (Zebrafish embryos; 1 μM): 0%
- % Alterations 48 h (Zebrafish embryos; 1 μM): 0%
- % Lethality 48 h (Zebrafish embryos; 1 μM): 0%
- microtubule network organization (HeLa cells): microtubules were disorganized, and the cells developed a spherical morphology
